Measured values taken from patent US5837548A, “Treatment of inflammation by inhibition of lipid body formation” (Beth Israel Hospital, priority 1995, dated 1998).
Read-outs that look alike come from different tables or passages of the source. *1 amine or outer side, *2 acyl side, *3 side chain or, on linkers, in order; H or OH if unused. Where a SMILES comes first, the peptide text is derived from it. Bridges are numbered along the chain shown (N, C = ends). Roman numbers before positions name the chains, in order. [ ]: non-standard residue; d: D form. Actinocin(9to1) = Cc1c2oc3c(C)ccc(C(=O)[*:1])c3nc-2c(C(=O)[*:2])c(N)c1=O; NMeV = CN[CH](C(=O)O)C(C)C; Sar = CNCC(=O)O

Tests used:
human leukocytes = assay: cytotoxicity / cell viability by trypan blue dye exclusion; format: cell-based; settings: neutrophils
Protocol: (§1) Human leukocytes (10^6 cells/mL) were incubated with varying concentrations of arachidonic acid (AA), oleic acid (OA) or vehicle at 37° C. in a 5% CO2 /95% O2 atmosphere, and after 1 hour leukocytes (10^5 cells per slide) were cytocentrifuged (550 rpm, 5 min) onto glass slides. During inhibitory studies, neutrophils were pretreated for 1 hour with varying concentrations of enzyme inhibitors, protein synthesis inhibitors, or vehicle as indicated. When PKC inhibitors were used, the pre-incubation time was reduced to 30 minutes to avoid toxic effects to the cells. The cell viability, determined by trypan blue dye exclusion at the end of each experiment, was always greater than 90%. Stock solutions for A23187, D609, U-73122, and indomethacin were prepared in DMSO and stored at -20° C. Aliquots were diluted in Ca^++ /Mg^++ fee HBSS to the indicated concentration immediately prior to use. The final DMSO concentration was always lower than 0.1% and had no effect on lipid body numbers. […] The morphology of fixed cells was observed, and lipid bodies were enumerated with phase contrast microscopy and a 100× objective lens in 50 consecutively scanned leukocytes.

human neutrophils = assay: cis-unsaturated fatty acid-induced lipid body formation in human neutrophils (osmium staining, light microscopy enumeration); format: cell-based; settings: for inhibition at 1 µM / inhibition at 10 µM: Homo sapiens, Neutrophil, basal subtracted; for inhibition of arachidonic acid-induced lipid body formation / inhibition of oleic acid-induced lipid body formation: human neutrophils, staurosporine 0.1-1.0 μM, aspirin 10 μg/mL, others as in Tables 1 and 2; for effect on numbers of preformed lipid bodies: neutrophils
Protocol: Neutrophils were purified from fresh human blood obtained by venipuncture from healthy adult volunteers and collected into acidified citrate. After addition of 6% dextran 70 (McGaw, Irvine, Calif.), RBCs were allowed to sediment for 1 hour at room temperature. The leukocyte-rich supernatant was overlaid onto an equal volume of Ficoll-Paque gradient (Piscataway, N.J.), and centrifuged at 400×g for 20 min. […] Residual RBCs were lysed with hypotonic saline.
as §1, with “The cell viability, determined by trypan blue dye exclusion at the end of each experiment, was always greater than 90%.” left out, “use.” for “use. The final DMSO concentration was always lower than 0.1% and had no effect on lipid body numbers.”
Results were expressed as mean±SEM and were analyzed statistically by means of the analysis of variance followed by the Newman-Keuls-Student test with the level of significance set at p<0.05. Correlation coefficients were determined by linear regression, and correlation analysis was performed by Fisher's r to z transformation with the level of significance set at p<0.05.
^1 Neutrophils (10^6 /ml) were pretreated with protein kinase C
(actinomycin D, cycloheximide) for 30 min or with phospholipase C
inhibitors (D609, U73122) for 1 h. The cells were then stimulated with
vehicle, arachidonic acid (15 μM), or oleic acid (10 μM), for 1 h.
Results are mean ± SEM from fifty consecutively counted neutrophils.
Statistically significant differences between the agonist alone and the
inhibitor are represented by an asterisk(*). Percent inhibition has been
calculated after subtracting out the basal number of lipid bodies/PMN
present prior to stimulation.
^1 Neutrophils (10^6 /ml) were pretreated with the NSAID or
vehicle for 1 h then stimulated with vehicle, arachidonic acid, or oleic
± SEM from fifty consecutively counted neutrophils. Statistically
significant differences between the agonist alone and the NSAID are
represented by an asterisk (*). Percent inhibition has been calculated
after subtracting out the basal number of lipid bodies/PMN present prior

[1] = arachidonic acid 15 μM, inhibitor 1 μM
[2] = arachidonic acid 15 μM, inhibitor 10 μM
[3] = oleic acid 10 μM, inhibitor 1 μM
[4] = oleic acid 10 μM, inhibitor 10 μM

Cc1c2oc3c(C)ccc(C(=O)NC4C(=O)NC(C(C)C)C(=O)N5CCCC5C(=O)N(C)CC(=O)N(C)C(C(C)C)C(=O)OC4C)c3nc-2c(C(=O)NC2C(=O)NC(C(C)C)C(=O)N3CCCC3C(=O)N(C)CC(=O)N(C)C(C(C)C)C(=O)OC2C)c(N)c1=O (stereo not drawn) [actinomycin D] (I: TVP[Sar][NMeV] / II: TVP[Sar][NMeV]; ester I:1-I:C, II:1-II:C; linker I:N-II:N via Actinocin(9to1); configuration not given here)
cytotoxicity (human leukocytes): not cytotoxic
inhibition at 1 µM (human neutrophils; arachidonic acid 15 μM, inhibitor 1 μM, read-out: % inhibition): 47%
inhibition at 10 µM (human neutrophils; arachidonic acid 15 μM, inhibitor 10 μM, read-out: % inhibition): 64%
inhibition at 1 µM (human neutrophils; oleic acid 10 μM, inhibitor 1 μM, read-out: % inhibition): 26%
inhibition at 10 µM (human neutrophils; oleic acid 10 μM, inhibitor 10 μM, read-out: % inhibition): 42%
lipid bodies (mean ± SEM)/cell (human neutrophils; [1]): 8.4 ± 0.3 lipid bodies/cell
lipid bodies (mean ± SEM)/cell (human neutrophils; [2]): 7.6 ± 0.3 lipid bodies/cell
inhibition of arachidonic acid-induced lipid body formation (human neutrophils): significantly inhibited
inhibition of oleic acid-induced lipid body formation (human neutrophils): significantly inhibited
effect on numbers of preformed lipid bodies (human neutrophils): did not alter numbers of preformed lipid bodies
lipid bodies (mean ± SEM)/cell (human neutrophils; [3]): 8.8 ± 0.3 lipid bodies/cell
lipid bodies (mean ± SEM)/cell (human neutrophils; [4]): 8.1 ± 0.3 lipid bodies/cell

C[C@@H]1C[C@@H]([C@H](O)CC2CC(=O)NC(=O)C2)C(=O)[C@@H](C)C1 [cycloheximide]
cytotoxicity (human leukocytes): not cytotoxic
inhibition at 1 µM (human neutrophils; [1]): 17%
inhibition at 10 µM (human neutrophils; [2]): 30%
inhibition at 1 µM (human neutrophils; [3]): 22%
inhibition at 10 µM (human neutrophils; [4]): 38%
lipid bodies (mean ± SEM)/cell (human neutrophils; [1]): 9.8 ± 0.3 lipid bodies/cell
lipid bodies (mean ± SEM)/cell (human neutrophils; [2]): 9.2 ± 0.3 lipid bodies/cell
inhibition of arachidonic acid-induced lipid body formation (human neutrophils): significantly inhibited
inhibition of oleic acid-induced lipid body formation (human neutrophils): significantly inhibited
effect on numbers of preformed lipid bodies (human neutrophils): did not alter numbers of preformed lipid bodies
lipid bodies (mean ± SEM)/cell (human neutrophils; [3]): 9.0 ± 0.3 lipid bodies/cell
lipid bodies (mean ± SEM)/cell (human neutrophils; [4]): 8.3 ± 0.3 lipid bodies/cell
